{"source": "ChEMBL document CHEMBL1157261", "about": "“Neuroprotective 2-(2-phenylethyl)chromones of Imperata cylindrica” (2006)", "assay": "Neuroprotective activity against glutamate-induced neurotoxicity in Sprague-Dawley rat cortical cells at 10 uM after 24 hrs by MTT assay relative to control", "assay_type": "functional", "data": [{"smiles": "O=c1cc(/C=C/c2ccccc2)oc2cccc(O)c12", "values": [{"measurement": "Activity", "result": -11.3, "unit": "%"}]}, {"smiles": "O=c1cc(CCc2ccccc2)oc2cccc(O)c12", "values": [{"measurement": "Activity", "result": 67, "unit": "%"}]}, {"smiles": "O=c1cc(CCc2ccccc2O)oc2cccc(O)c12", "values": [{"measurement": "Activity", "result": 63.6, "unit": "%"}]}, {"smiles": "C[C@]12N[C@H](Cc3ccccc31)c1ccccc12.O=C(O)/C=C\\C(=O)O", "note": "[DIZOCILPINE MALEATE]", "values": [{"measurement": "Activity", "result": 82.2, "unit": "%"}]}]}
